Activity calls are given as the source filed them. The rule behind the calls is not given here.
Assays:
HepG2 [1] = experiment: Induction of apoptosis in human HepG2 cells assessed as viable cells at 10 uM incubated for 12 hrs by AnnexinV-FITC/PI staining based flow cytometry (reference value: 96.32%); format: functional; details: read-out: Activity
HepG2 [2] = experiment: Induction of apoptosis in human HepG2 cells assessed as late apoptotic cells at 10 uM incubated for 12 hrs by AnnexinV-FITC/PI staining based flow cytometry (reference value: 1.91%); format: functional
[3] = Selectivity index, ratio of IC50 for human L02 cells to IC50 for human HeLa cells by MTT assay; format: toxicity; details: L02 cells versus HeLa cells, read-out: Ratio IC50
[4] = biological target: T1, Nuclear receptor subfamily 4immunitygroup A member 1 (Homo sapiens, UniProt P22736); experiment: Binding affinity to pBind-Nur77-LBD (unknown origin) transfected in HEK293T cells co-transfected with pG5-Luc assessed as inhibition of Nur77 transcriptional activity by measuring inhibition of Nur77-driven luciferase activity incubated for 12 hrs by luciferase reporter gene assay; format: cell-based; details: filed as modulator, dose 1.25-5 µM
HepG2 [5] = experiment: Induction of apoptosis in human HepG2 cells transfected with Nur77 siRNA assessed as late apoptotic cells at 10 uM incubated for 12 hrs by AnnexinV-FITC/PI staining based flow cytometry (reference value: 1.98%); format: functional
HepG2 [6] = experiment: Induction of apoptosis in human HepG2 cells assessed as induction of PARP cleavage incubated for 12 hrs by western blot analysis; format: functional, cell-based
[7] = Toxicity in BALB/c nude mouse xenografted with human HepG2 cells assessed as effect on lung damage at 50 mg/kg ip administered once every day for 14 days by H and E staining based analysis; format: organism-based; details: in vivo, 336 h, time 14 day
HepG2 [8] = experiment: Induction of apoptosis in human HepG2 cells transfected with Nur77 siRNA assessed as induction of PARP cleavage at 10 to 15 uM incubated for 12 hrs by western blot analysis; format: functional, cell-based; details: dose 10-15 µM
HepG2 [9] = experiment: Induction of apoptosis in human HepG2 cells transfected with Nur77 siRNA assessed as viable cells at 10 uM incubated for 12 hrs by AnnexinV-FITC/PI staining based flow cytometry (reference value: 96.34%); format: functional; details: read-out: Activity
HepG2 [10] = experiment: Antitumor activity against human HepG2 cells xenografted in BALB/c nude mouse assessed as decrease in Ki67 expression in tumor tissues at 50 mg/kg, ip administered once every day for 14 days by immunohistochemistry analysis; format: functional, organism-based; details: time 14.0 day
HepG2 [11] = experiment: Antitumor activity against human HepG2 cells xenografted in BALB/c nude mouse assessed as inhibition of tumor growth at 50 mg/kg, ip administered once every day for 14 days; format: functional; details: HepG2, 336 h, time 14 day, read-out: TGI
SMMC-7721 = experiment: Antiproliferative activity against human SMMC-7721 cells assessed as reduction in cell viability incubated for 48 hrs by MTT assay; format: functional, cell-based; details: SMMC-7721, 48 h
HepG2 [12] = experiment: Antitumor activity against human HepG2 cells xenografted in BALB/c nude mouse assessed as inhibition of tumor weight at 50 mg/kg, ip administered once every day for 14 days; format: functional, organism-based; details: time 14.0 day
HepG2 [13] = experiment: Antiproliferative activity against human HepG2 cells assessed as reduction in cell viability incubated for 48 hrs by MTT assay; format: functional, cell-based; details: HepG2, 48 h
HepG2 [14] = experiment: Induction of apoptosis in human HepG2 cells transfected with Nur77 siRNA assessed as early apoptotic cells at 10 uM incubated for 12 hrs by AnnexinV-FITC/PI staining based flow cytometry (reference value: 1.37%); format: functional
HeLa = experiment: Antiproliferative activity against human HeLa cells assessed as cell viability at 10 uM incubated for 48 hrs by MTT assay; format: functional; details: read-out: Activity
HepG2 [15] = experiment: Antiproliferative activity against human HepG2 cells assessed as cell viability at 10 uM incubated for 48 hrs by MTT assay; format: functional; details: read-out: Activity
[16] = biological target: T2, Retinoic acid receptor RXR-alpha (Homo sapiens) (UniProt P19793); experiment: Binding affinity to pBind-RXRalpha-LBD (unknown origin) transfected in HEK293T cells co-transfected with pG5-Luc at 5 uM incubated for 12 hrs by luciferase reporter gene assay; format: cell-based
T2 sequence (whole entry): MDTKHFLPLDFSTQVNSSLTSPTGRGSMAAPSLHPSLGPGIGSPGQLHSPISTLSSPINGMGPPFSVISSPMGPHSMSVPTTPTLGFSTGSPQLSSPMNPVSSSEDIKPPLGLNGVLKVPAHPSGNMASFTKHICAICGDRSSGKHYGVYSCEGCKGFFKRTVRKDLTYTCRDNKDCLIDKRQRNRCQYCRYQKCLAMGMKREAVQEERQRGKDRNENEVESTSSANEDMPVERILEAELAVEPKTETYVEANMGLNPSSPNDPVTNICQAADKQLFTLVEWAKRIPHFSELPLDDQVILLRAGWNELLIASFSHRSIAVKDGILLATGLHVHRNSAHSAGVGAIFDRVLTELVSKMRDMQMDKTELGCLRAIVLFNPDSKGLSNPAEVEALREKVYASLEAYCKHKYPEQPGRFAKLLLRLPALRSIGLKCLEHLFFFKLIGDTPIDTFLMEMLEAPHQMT

[17] = Toxicity in BALB/c nude mouse xenografted with human HepG2 cells assessed as body weight loss at 50 mg/kg, ip administered once every day for 14 days; format: organism-based; details: in vivo, 336 h, time 14 day
[18] = biological target: T1, Nuclear receptor subfamily 4immunitygroup A member 1; experiment: Binding affinity to pBind-Nur77-LBD (unknown origin) transfected in HEK293T cells co-transfected with pG5-Luc assessed as inhibition of Nur77 transcriptional activity by measuring inhibition of Nur77-driven luciferase activity at 5 uM incubated for 12 hrs by luciferase reporter gene assay; format: cell-based; details: filed as modulator
HepG2 [19] = experiment: Induction of apoptosis in human HepG2 cells assessed as mitochondrial membrane potential loss by measuring proportion of cells with depolarized MMP at 10 uM incubated for 12 hrs by JC-1 staining based flow cytometry (reference value: 5.81%); format: functional
Huh-7 = experiment: Antiproliferative activity against human Huh-7 cells assessed as reduction in cell viability incubated for 48 hrs by MTT assay; format: functional, cell-based; details: Huh-7, 48 h
MDA-MB-231 = experiment: Antiproliferative activity against human MDA-MB-231 cells assessed as reduction in cell viability incubated for 48 hrs by MTT assay; format: functional, cell-based; details: MDA-MB-231, 48 h
[20] = biological target: T1, Nuclear receptor subfamily 4immunitygroup A member 1; experiment: Binding affinity to Nur77 ligand binding domain (unknown origin) by fluorescence quenching assay
HepG2 [21] = experiment: Induction of apoptosis in human HepG2 cells transfected with Nur77 siRNA assessed as late necrotic cells at 10 uM incubated for 12 hrs by AnnexinV-FITC/PI staining based flow cytometry (reference value: 0.3%); format: functional
HepG2 [22] = experiment: Antitumor activity against human HepG2 cells xenografted in BALB/c nude mouse assessed as increase in cleaved caspase 3 expression in tumor tissues at 50 mg/kg, ip administered once every day for 14 days by immunohistochemistry analysis; format: functional, organism-based; details: time 14.0 day
HepG2 [23] = experiment: Antitumor activity against human HepG2 cells xenografted in BALB/c nude mouse assessed as inhibition of tumor volume at 50 mg/kg, ip administered once every day for 14 days; format: functional, organism-based; details: time 14.0 day
[24] = Selectivity index, ratio of IC50 for human L02 cells to IC50 for human Huh-7 cells by MTT assay; format: toxicity; details: L02 cells versus Huh-7 cells, read-out: Ratio IC50

T1 sequence (P22736 whole entry, the tested form may be a part): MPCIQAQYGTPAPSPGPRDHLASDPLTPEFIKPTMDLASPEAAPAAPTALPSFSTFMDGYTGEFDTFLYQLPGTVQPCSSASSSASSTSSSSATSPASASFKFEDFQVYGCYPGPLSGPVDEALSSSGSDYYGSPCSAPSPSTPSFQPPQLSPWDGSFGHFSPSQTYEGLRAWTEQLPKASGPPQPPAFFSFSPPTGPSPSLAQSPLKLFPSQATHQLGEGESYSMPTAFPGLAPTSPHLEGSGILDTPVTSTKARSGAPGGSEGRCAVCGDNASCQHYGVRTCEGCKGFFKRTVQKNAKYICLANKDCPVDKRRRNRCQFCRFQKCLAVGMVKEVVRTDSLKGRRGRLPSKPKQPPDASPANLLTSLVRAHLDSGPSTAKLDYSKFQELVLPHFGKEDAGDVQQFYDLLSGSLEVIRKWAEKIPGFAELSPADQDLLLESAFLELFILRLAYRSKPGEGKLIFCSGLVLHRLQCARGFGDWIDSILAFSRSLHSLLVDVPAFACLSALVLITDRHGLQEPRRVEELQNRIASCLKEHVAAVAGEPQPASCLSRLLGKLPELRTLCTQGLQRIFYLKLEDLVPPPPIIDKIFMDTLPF

Question: For `CN(C)CCCNC(=O)c1cc2cc(Nc3nccc(-c4cccnc4)n3)ccc2[nH]1`, which viability at 10 µM (HepG2 [1]) is on record?
Answer: The viability at 10 µM was 72.7%.

Question: What about the Activity (HepG2 [2]) of the same compound?
Answer: Its Activity is 8.01%.

Question: And the selectivity ratio [3]?
Answer: The selectivity ratio was 3.

Question: What about the Activity [4] of the same compound?
Answer: Its Activity is “Dose-Dependent Effect”.

Question: What about the Activity (HepG2 [5]) of the same compound?
Answer: Its Activity is 2.28%.

Question: What about the Activity (HepG2 [6]) of the same compound?
Answer: The Activity was “Dose-Dependent Effect”.

Question: And the Activity [7]?
Answer: The Activity was “Non-Toxic”.

Question: And the Activity (HepG2 [8])?
Answer: The Activity was “inactive”.

Question: What about the viability at 10 µM (HepG2 [9]) of the same compound?
Answer: Its viability at 10 µM is 95.1%.

Question: What about the Activity (HepG2 [10]) of the same compound?
Answer: The Activity was “Active”.

Question: And the inhibition in vivo at 50 mg/kg (HepG2 [11])?
Answer: The inhibition in vivo at 50 mg/kg was 71.8%.

Question: What about the IC50 (SMMC-7721) of the same compound?
Answer: The IC50 was 5.91 µM.

Question: What about the Activity (HepG2 [12]) of the same compound?
Answer: The Activity was “Active”.

Question: What about the IC50 (HepG2 [13]) of the same compound?
Answer: The IC50 was 9.04 µM.

Question: What about the Activity (HepG2 [14]) of the same compound?
Answer: The Activity was 1.92%.

Question: What about the viability at 10 µM (HeLa) of the same compound?
Answer: The viability at 10 µM was 19.4%.

Question: What about the viability at 10 µM (HepG2 [15]) of the same compound?
Answer: The viability at 10 µM was 43.7%.

Question: What about the Activity [16] of the same compound?
Answer: Its Activity is “inactive”.

Question: What about the Activity [17] of the same compound?
Answer: The Activity was “Non-Toxic”.

Question: What about the Activity [18] of the same compound?
Answer: The Activity was “Active”.

Question: What about the Activity (HepG2 [19]) of the same compound?
Answer: The Activity was 21.34%.

Question: And the IC50 (Huh-7)?
Answer: Its IC50 is 3.58 µM.

Question: And the IC50 (MDA-MB-231)?
Answer: The IC50 was 3.24 µM.

Question: And the Kd [20]?
Answer: Its Kd is 0.121 µM.

Question: What about the Activity (HepG2 [21]) of the same compound?
Answer: Its Activity is 0.75%.

Question: What about the Activity (HepG2 [22]) of the same compound?
Answer: The Activity was “Active”.

Question: What about the Activity (HepG2 [23]) of the same compound?
Answer: Its Activity is “Active”.

Question: And the selectivity ratio [24]?
Answer: The selectivity ratio was 3.14.

From ChEMBL document CHEMBL5247610, “Discovery of 5-((4-(pyridin-3-yl)pyrimidin-2-yl)amino)-1H-indole-2-carboxamide derivatives as novel anti-cancer agents targeting Nur77” (Eur J Med Chem, 2022)
